From patent publication US11147272B2, “Pyridone compounds and agricultural and horticultural fungicides comprising the same as active ingredients” (MITSUI CHEMICALS AGRO, INC., priority 2017, dated 2021)

Tests used:
[1] = tested on: Magnaporthe grisea; experiment: whole plant or invertebrate; format: in vivo; conditions: for Test A control value class: class of control value
[2] = tested on: Alternaia brassicicola; experiment: Test Example C: Alternaria sooty spot on cabbage; format: in vivo; conditions: for Test C control value class: class of control value
Description: Seeds of a test plant (cabbage variety: Shikidori) were planted and cultivated until the cotyledons extended.
<Control Value> Control value=100{1−(n/3)}

[3] = tested on: Puccinia recondita; experiment: Test Example E: Brown rust on wheat; format: in vivo; conditions: for Test E control value class: class of control value
[4] = tested on: Phytophthora infestans; experiment: whole plant or invertebrate; format: in vivo; conditions: for Test F control value class: class of control value
[5] = tested on: Botrytis cinerea; experiment: Test Example B: Gray mold on tomato; conditions: for Test B control value class: class of control value
[6] = tested on: Plasmopara viticola; experiment: Test Example G: Downy mildew on vine; conditions: for Test G control value class: Downy mildew on vine (Neomuscat), 2.5 ml/pot, assessed 7 to 10 days after inoculation; for Test G control value: 7 to 10 days after inoculation
[7] = tested on: Colletotrichum orbiculare; experiment: Test Example H: Anthracnose on cucumber; conditions: for Test H control value class: Anthracnose on cucumber (Sagami Hanjiro), 2.5 ml/pot, assessed 6 to 10 days after inoculation; for Test H control value: 6 to 10 days after inoculation
[8] = tested on: Blumeria graminis f. sp. hordei; experiment: Test Example D: Powdery mildew on barley; conditions: for Test D control value class: class of control value
[9] = Alternaria sooty spot on cabbage
[10] = 250 ppm drug solution sprayed on test plant
[11] = 250 ppm drug solution sprayed (2.5 ml/pot), grape Neomuscat
[12] = 250 ppm drug solution sprayed (2.5 ml/pot), cucumber Sagami Hanjiro

CCOCc1cc(Cl)c(=O)n(CC)c1-c1c(F)cccc1F [compound 62]
L (50% or less control value): Test F control value class ([4]; Late blight on tomato)
H (more than 50% control value): Test A control value class ([1]; Blast on rice) | Test C control value class [2, 9] | Test E control value class ([3]; Brown rust on wheat) | Test B control value class ([5]; Gray mold on tomato) | Test G control value class ([6]; 250 ppm spray) | Test H control value class ([7]; 250 ppm spray) | Test D control value class ([8]; Powdery mildew on barley)

CCn1c(-c2ccc(Cl)cc2F)c(CC(C)C)ccc1=O [compound 157]
L (50% or less control value): Test F control value class ([4]; Late blight on tomato) | Test H control value class ([7]; 250 ppm spray)
H (more than 50% control value): Test A control value class ([1]; Blast on rice) | Test C control value class [2, 9] | Test E control value class ([3]; Brown rust on wheat) | Test B control value class ([5]; Gray mold on tomato) | Test G control value class ([6]; 250 ppm spray) | Test D control value class ([8]; Powdery mildew on barley)

CCn1c(-c2c(F)cc(F)cc2F)c(C(C)(OC)C(C)C)ccc1=O (stereo not drawn) [compound 479]
H (more than 50% control value): Test A control value [1, 10] | Test C control value [2, 10] | Test E control value [3, 10] | Test B control value [5, 10] | Test G control value [6, 11] | Test H control value [7, 12] | Test D control value [8, 10]
L (50% or less control value): Test F control value [4, 10]

CCn1c(-c2c(F)cc(OC)cc2F)c(C)cc(I)c1=O [compound 380]
L (50% or less control value): Test G control value [6, 11]
H (more than 50% control value): Test A control value [1, 10] | Test C control value [2, 10] | Test E control value [3, 10] | Test F control value [4, 10] | Test B control value [5, 10] | Test H control value [7, 12] | Test D control value [8, 10]

Cc1cc(CC(C)C)c(-c2c(F)cc(F)cc2F)n(CC(F)F)c1=O [compound 307]
H (more than 50% control value): Test C control value ([2]; Alternaria sooty spot on cabbage, control value class) | Test E control value ([3]; Brown rust on wheat, control value class) | Test B control value ([5]; Gray mold on tomato, control value class) | Test H control value ([7]; Anthracnose on cucumber, 250 ppm spray) | Test D control value ([8]; Powdery mildew on barley, control value class)
L (50% or less control value): Test A control value ([1]; Blast on rice, control value class) | Test F control value ([4]; Late blight on tomato, control value class) | Test G control value ([6]; Downy mildew on vine, 250 ppm spray)

CCOC(C)(CC)c1cc(Br)c(=O)n(CC)c1-c1c(F)cc(OC)cc1F (stereo not drawn) [compound 485]
L (50% or less control value): Test F control value [4, 10] | Test G control value [6, 11] | Test D control value [8, 10]
H (more than 50% control value): Test A control value [1, 10] | Test C control value [2, 10] | Test E control value [3, 10] | Test B control value [5, 10] | Test H control value [7, 12]
